“Also recorded” adds a separate entry of the source. Where two headings read alike, the source gives them in different places.
Experiments:
[1] = test system: breast ductal carcinoma HCC1569; experiment: Breast ductal carcinoma HCC1569 model, tumor volume; type: in vivo, human
Procedure: In an exemplary breast ductal carcinoma HCC1569 model, Azenosertib was administered at a dose of about 100 mg/kg at intermittent dosing regimen of 3 cycles of 4 days on/3 days off (4/3) and 3 days on/4 days off (3/4) and compared with a lower continuous dose (e.g., 60 mg/kg). Tumor volume change was plotted in FIG. 1G and corresponding change in body weight in FIG. 1H until about 24 days post-initiation of treatment.

Wee1 = biological target: T1, Wee1 (Homo sapiens, UniProt P30291); experiment: PK/PD correlation, Wee1 target engagement (p-CDK1 in skin biopsies); type: in vivo
T1 construct: from tissue; host or cells: skin biopsies of treated subjects
Excerpt: CDK1 phosphorylation (pCDK-1) is mediated by Wee1. It is contemplated that Wee1 inhibition by Azenosertib results in pCDK1 inhibition.

[2] = Clinical exposure (plasma PK) with continuous and intermittent 5/2 dosing; type: in vivo, human; settings: for Cmax / Tmax / AUC: human, plasma, oral; for AUC: read-out: AUC24
Procedure: This example illustrates the clinical exposure achieved with a continuous and an intermittent 5 days on/2 days off (5/2) dosing regimen. A comparison is also made between a once daily dosing regimen and a twice daily dosing regimen. In some embodiments, Azenosertib was administered with food and/or antiemetic agents.
The results are shown as follows: FIG. 5A is a graph of Azenosertib plasma concentration from subjects receiving a 5/2 350 mg once daily or 175 mg twice daily on day 1, cycle 1. FIG. 5B is a graph of Azenosertib plasma concentration from subjects receiving a 5/2 350 mg once daily or 175 mg twice daily on day 11/12, cycle 1. FIG. 5C is a graph of Azenosertib plasma concentration from subjects receiving a continuous dosing regimen relative to subjects receiving a 5/2 intermittent 350 mg once daily dosing regimen on day 1, cycle 1. FIG. 5D is a graph of Azenosertib plasma concentration from subjects receiving a continuous dosing regimen relative to subjects receiving a 5/2 intermittent 350 mg once daily dosing regimen on day 11/12 or 15 of cycle 1. FIG. 5E is a graph of Azenosertib plasma concentration from subjects receiving a continuous dosing regimen relative to subjects receiving a 5/2 intermittent 175 mg twice daily dosing regimen on day 1, cycle 1. FIG. 5F is a graph of Azenosertib plasma concentration from subjects receiving a continuous dosing regimen relative to subjects receiving a 5/2 intermittent 175 mg twice daily dosing regimen on day 11/12 or 15 of cycle 1.

[3] = test system: ovarian cancer and uterine serous carcinoma (USC); experiment: Phase 1a/1b Azenosertib monotherapy study, tumor response (RECIST 1.1); type: in vivo, human
Procedure: In this example, a Phase 1a dose escalation and Phase 1b dose expansion clinical study was carried out to evaluate the safety and pharmacokinetics (PK), i.e. steady state exposure (AUC0-24) and concentration maximum (Cmax) of Azenosertib monotherapy.
In some cohorts, a phase 1a dose escalation was carried out starting at doses below 200 mg, escalating to 200 mg, 300 mg, 350 mg, 400 mg, and 450 mg total daily dose in continuous dosing regimen. The dose used in Phase 1b was 300 mg QD.
In some cohorts, a phase 1a dose escalation was carried out starting at doses of 350 mg, 400 mg, 450 mg and 500 mg total daily dose at a 5:2 or 4:3 dosing regimen. The doses used in Phase 1b were 350 mg and 400 mg at 5:2 dosing regimen.
Tumor assessments (per RECIST 1.1) were carried out every 2 cycles (6 weeks) in subjects recruited in the study. There were no biomarker requirements to enroll in the study; nor were there any prior therapy requirements. Individuals in the cohorts represented multiple tumor types (FIG. 9A). Heavily pretreated subjects with advanced solid tumors were included in continuous and intermittent dosing cohorts (Table 6).
51 subjects were enrolled with Uterine Serous Carcinoma (USC) or High Grade Serous Ovarian Cancer (HGSOC) after multiple prior therapies in cohorts treated with continuous or intermittent dosing schedules (Table 7A) and intermittent dosing schedule only (Table 7B).
A total of 127 heavily pretreated subjects with advanced solid tumors were treated with Azenosertib monotherapy at ascending dose levels of either continuous daily dosing or intermittent weekly administration schedules. Across all tumor types, 74 subjects were treated with continuous dosing schedules and 53 subjects were treated with intermittent dosing schedules.

[4] = 175 mg, 175 twice daily, 5/2, steady state (Day 12/11)
[5] = 175 mg, 175 twice daily, Continuous, mean steady state (Day 12/11)
[6] = 300 mg, 300 once daily, Continuous, mean steady state (Day 12/11)
[7] = 350 mg, 350 once daily, 5/2, mean steady state (Day 12/11)
[8] = 350 mg, 350 once daily, Continuous, mean steady state (Day 12/11)
[9] = intermittent dosing cohort, platinum-resistant ovarian cancer and USC, median follow-up 9.2 months

T1 sequence (P30291 whole entry): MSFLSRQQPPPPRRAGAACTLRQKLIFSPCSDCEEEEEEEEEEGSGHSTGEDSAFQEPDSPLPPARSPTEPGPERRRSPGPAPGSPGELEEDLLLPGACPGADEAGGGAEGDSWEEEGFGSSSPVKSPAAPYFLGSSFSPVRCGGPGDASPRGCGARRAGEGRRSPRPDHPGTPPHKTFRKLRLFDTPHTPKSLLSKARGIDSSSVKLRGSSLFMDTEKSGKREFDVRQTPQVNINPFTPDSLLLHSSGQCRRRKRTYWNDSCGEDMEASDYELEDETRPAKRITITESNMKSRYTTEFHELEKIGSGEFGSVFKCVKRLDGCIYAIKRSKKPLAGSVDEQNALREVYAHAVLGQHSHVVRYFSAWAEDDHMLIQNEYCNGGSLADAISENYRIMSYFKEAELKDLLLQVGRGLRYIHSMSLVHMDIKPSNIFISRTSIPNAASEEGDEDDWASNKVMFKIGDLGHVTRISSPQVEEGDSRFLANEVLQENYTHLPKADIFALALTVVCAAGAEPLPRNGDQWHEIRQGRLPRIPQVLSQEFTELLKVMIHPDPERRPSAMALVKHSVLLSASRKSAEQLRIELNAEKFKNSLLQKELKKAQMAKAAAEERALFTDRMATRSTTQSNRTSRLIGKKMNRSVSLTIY

## C=CCn1c(=O)c2cnc(Nc3ccc(N4CCN(C)CC4)cc3)nc2n1-c1ccc2c(n1)[C@@](O)(CC)CC2 [Azenosertib, (R)-2-allyl-1-(7-ethyl-7-hydroxy-6,7-dihydro-5H-cyclopenta[b]pyridin-2-yl)-6-((4-(4-methylpiperazin-1-yl)phenyl)amino)-1,2-dihydro-3H-pyrazolo[3,4-d]pyrimidin-3-one]
[1]; about 100 mg/kg 3 cycles 4/3 and 3/4 vs continuous 60 mg/kg, about 24 days
  tumor volume, intermittent vs continuous dosing: more efficacious
[1]; about 100 mg/kg, 3 cycles
  efficacy of 4 days on/3 days off vs 3 days on/4 days off: comparable in efficacy
Wee1; dose of greater than about 300 mg once daily
  decrease of p-CDK1 levels: at least 50%
Wee1; skin biopsies
  p-CDK1 levels in skin biopsies following treatment relative to baseline: decreases in p-CDK1 levels
[2]; 350 mg once daily (or 175 mg twice daily), 5/2 vs continuous
  exposure, intermittent vs continuous dose: higher for intermittent vs. continuous; also recorded: comparable or better exposure
[2]; [4]
  Cmax: 1470 ng/mL
  Tmax: 1 h
  AUC: 13300 ng·h/mL
[2]; [5]
  Cmax: 738 ng/mL
  Tmax: 2.3 h
  AUC: 10800 ng·h/mL
[2]; [6]
  Cmax: 1090 ng/mL
  Tmax: 2.8 h
  AUC: 10800 ng·h/mL
[2]; [7]
  Cmax: 1490 ng/mL
  Tmax: 3 h
[2]; 350 mg, 350 once daily, 5/2, steady state (Day 12/11)
  AUC: 10300 to 15800 ng·h/mL
[2]; [8]
  Cmax: 840 ng/mL
  Tmax: 2.2 h
  AUC: 7140 ng·h/mL
[3]; Azenosertib monotherapy, N=51, N with at least 1 scan=40
  overall Objective Response Rate (ORR %): 27.5%
[3]; USC and HGSOC subjects
  subjects with stable disease (SD) or partial response (PR) as best overall response: 95%
  subjects with target lesion reductions from baseline scans: 89%
[3]; [9]
  ORR %: 36.8%
  mPFS: 6.5 months
[3]; ovarian, early follow up of median 4.4 months
  median PFS: around 5.1 months

From patent US20250262214A1, “INTERMITTENT DOSING REGIMEN FOR AZENOSERTIB IN TREATING CANCER” (Zeno Management, Inc., priority 2022, published 2025)
